According to patent publication US8084621B2, “3-Pyrrolo[b]cyclohexylene-2-dihydroindolinone derivatives and uses thereof” (Jiangsu Simcere Pharmaceutical R&D Co. Ltd., priority 2006, dated 2011):

The compounds below were run on Human Colon Cancer Cell Line (CACO-2) (assay: Tumor cell proliferation assay (MTT), CACO-2). Details: concentration of 10^−5 mol/L, preliminary screening, 72 hours, read-out: Inhibition rate % CACO-2.
Type: cell-based
Source text: The assay used generally is the blue tetrazolium bromide (MTT) method. […] The amount of formazan can be detected by the microplate reader through the absorption value at 570 nm. The amount of formazan product generated is proportional to the number of living cells in the sample, so the OD value may reflect the number of living cells and the ability of a test drug to inhibit or kill cells. The MTT assay may be used in determining the ability of different compounds of the present invention to inhibit one or more cancer cells proliferation. Similar assays can be designed along the same lines for any cancer cell using techniques well known in the art.
The assay used generally is the blue tetrazolium bromide (MTT) method. […] Intracellular purple formazan salt crystals can be solved in DMSO and the absorption value at 570 nm is detected by the microplate reader, then the number of living cells can be detected indirectly. So MTT assay may be used to determine the ability of a compound of the present invention to inhibit cell proliferation. Similar assays can be designed along the same lines for any cancer cell using techniques well known in the art.
2.2.10 Human Colon Cancer Cell Line (CACO-2)
The cell of 2.2.10 cultured in DMEM/High glucose medium containing 12% fetal bovine serum in the condition of 37° C., 5% CO2.
2.3.1 Cell seeding: Trypsinize the cell by 0.05% trypsin-EDTA and add RPMI 1640 medium (DMEM or 5A) containing 12% calf serum. Count the number, then dilute to 1.67×10^4/ml. Add 180 ul/well to the 96 well plate (3000 cells/well).
2.3.2 Culture: cells are incubated for 24 hours at 37° C. under 5% CO2.
2.3.3 Preliminary screening: The compounds are firstly diluted to 0.1 mol/L with DMSO, and then diluted to three concentrations of 10^−5 mol/L, 10^−6 mol/L and 10^−7 mol/L. Add 20 ul test compounds to the 96 well plate and incubate for 72 hours. Each group has three parallel wells and all experiments repeat three times. Each inhibition ratio is calculated, then an average value of three times is taken as the measured value. 2.3.4 Staining 2.3.4.1 Attached cell: add 20 ul/well MTT to the 96-well plates; incubate for 4 hours in the incubator. Pour out the culture medium in the well and add 100 ul/well DMSO. Shake the plate for 5 min. 2.3.4.2 Suspension cell: add 20 ul/well MTT to the 96-well plates; incubate for 4 hours in the incubator. Add 50 ul/well 20% SDS and incubate for overnight in the incubator. 2.3.5 Reading the plates: read the absorbance A570-A630 with the Infinite M200 microtiter plate reader. Calculate the inhibition ratio of the test compounds. 2.3.6 Secondary screening: the compounds whose inhibition ratio is greater than 50% at the concentrations of 10^−5 mol/L in the preliminary screening will be picked out for Secondary screening. Dilute these compounds to ten concentrations: 10^−5 mol/L, 0.5×10^−5 mol/L, 10^−6 mol/L, 0.8×10^−6 mol/L, 0.6×10^−6 mol/L, 0.4×10^−6 mol/L, 0.2×10^−6 mol/L, 10^−7 mol/L, 0.8×10^−7 mol/L and 0.4×10^−7 mol/L. Add 20 ul test compound solution to the 96 well plate and incubate for 48 hours. Each group has three parallel wells and all experiments repeat for three times. Read the plates and calculate the inhibition ratio according to the preliminary screening method. 2.3.7 Calculate the Inhibition Ratio of Cell Proliferation and the IC50
According to the inhibition ratio of cell proliferation at the different concentrations of the compound, inhibition ratio of 50% of the test compound is calculated through the logarithm of the concentration of the compound with the Logit [I] linear regression, and an average value of three times is taken as the measured value of a sample.

Going from Cc1[nH]c2c(c1C(=O)N1CCN(C)CC1)CCC/C2=C1/C(=O)Nc2ccc(F)cc21 [I-14, 2-methyl-3-(4-methylpiperazine-1-carbonyl)-7-[1,2-dihydro-5-fluoro-2-oxo-3H-indol-(Z)-3-ylidene]-4,5,6,7-tetrahydro-1H-indole] to Cc1[nH]c2c(c1C(=O)NCCO)CCC/C2=C1/C(=O)Nc2ccc(F)cc21 [I-9, N-(2-hydroxyethyl)-2-methyl-7-[1,2-dihydro-5-fluoro-2-oxo-3H-indol-(Z)-3-ylidene]-4,5,6,7-tetrahydro-1H-indole-3-carboxamide], the inhibition at 10 µM rises from 2.36% to 18%.

First: Cc1[nH]c2c(c1C(=O)NCCO)CCC/C2=C1/C(=O)Nc2ccccc21 [I-8, N-(2-hydroxyethyl)-2-methyl-7-[1,2-dihydro-2-oxo-3H-indol-(Z)-3-ylidene]-4,5,6,7-tetrahydro-1H-indole-3-carboxamide]
Second: CCN(CC)CCNC(=O)c1c(C)[nH]c2c1CCC/C2=C1/C(=O)Nc2ccccc21 [I-5, N-(2-(diethylamino)ethyl)-2-methyl-7-[1,2-dihydro-2-oxo-3H-indol-(Z)-3-ylidene]-4,5,6,7-tetrahydro-1H-indole-3-carboxamide]
The inhibition at 10 µM of the first is lower: 17% for the first, 44.1% for the second.

Going from Cc1[nH]c2c(c1C(=O)NCC(O)CN1CCCCC1)CCC/C2=C1/C(=O)Nc2ccc(F)cc21 (stereo not shown) [I-74, N-(2-hydroxy-3-(piperidin-1-yl)propyl)-2-methyl-7-[1,2-dihydro-5-fluoro-2-oxo-3H-indol-(Z)-3-ylidene]-4,5,6,7-tetrahydro-1H-indole-3-carboxamide] to Cc1[nH]c2c(c1C(=O)NCC(O)CN1CCCCC1)CCC/C2=C1/C(=O)Nc2ccccc21 (stereo not shown) [I-73, N-(2-hydroxy-3-(piperidin-1-yl)propyl)-2-methyl-7-[1,2-dihydro-2-oxo-3H-indol-(Z)-3-ylidene]-4,5,6,7-tetrahydro-1H-indole-3-carboxamide], the inhibition at 10 µM falls from 83.1% to 44.4%.

CCN(CC)CCNC(=O)c1c(C)[nH]c2c1CCC/C2=C1/C(=O)Nc2ccc(F)cc21 [I-2, N-(2-(diethylamino)ethyl)-2-methyl-7-[1,2-dihydro-5-fluoro-2-oxo-3H-indol-(Z)-3-ylidene]-4,5,6,7-tetrahydro-1H-indole-3-carboxamide] gave an inhibition at 10 µM of 43%.
